# Target: gp120 (Human immunodeficiency virus type 1 group M subtype B, UniProt P04578)
# Assay: competitive ELISA of gp120 binding
# Parameters: species or system HIV-1
# Details: as compared to previous double mutant (CD4M8)
# From the text: In a second step, each putatively active side chain of the miniprotein was replaced by an Ala residue (“Ala scanning”).
compound,measurement,value
CC(C)C[C@@H]1NC(=O)CNC(=O)[C@H](CC(C)C)NC(=O)[C@H](CO)NC(=O)[C@H](CCCCN)NC(=O)[C@@H]2CSSC[C@@H](C(=O)NCC(=O)N3CCC[C@H]3C(=O)O)NC(=O)[C@H](C)NC(=O)[C@@H]3CSSC[C@H](NC(=O)[C@H](CCCNC(=N)N)NC(=O)[C@H](C)NC(=O)[C@H](CC(C)C)NC(=O)[C@H](CC(N)=O)NC(=O)[C@@H](N)CSSC[C@H](NC(=O)[C@H](CCCCN)NC(=O)CNC(=O)[C@H](CC(C)C)NC1=O)C(=O)N[C@@H](C)C(=O)NCC(=O)N[C@@H](CO)C(=O)N[C@@H](Cc1ccccc1)C(=O)N3)C(=O)N[C@@H](CCC(N)=O)C(=O)N[C@@H](CC(C)C)C(=O)N[C@@H](CCCNC(=N)N)C(=O)N2 [CD4M9],further increase of binding affinity,ten-fold
